Assay results reported in ChEMBL document CHEMBL4428091, “Design and optimization of (3-aryl-1H-indazol-6-yl)spiro[cyclopropane-1,3'-indolin]-2'-ones as potent PLK4 inhibitors with oral antitumor efficacy” (Bioorg Med Chem Lett, 2016).

Columns and labels:
[1] = tested on: MCF7; assay: Growth inhibition of human MCF7; format: functional
[2] = AUC in rat at 1 mg/kg, iv; format: ADME, organism-based; details: in vivo
[3] = biological target: CYP2C9 (Homo sapiens, UniProt P11712); assay: Inhibition of CYP2C9 (unknown origin) at 1 uM; format: ADME
[4] = tested on: MDA-MB-468; assay: Growth inhibition of human MDA-MB-468 cells; format: functional
[5] = Half life in mouse microsomes; format: ADME, Microsome
[6] = tested on: MDA-MB-468; assay: Antitumor activity against human MDA-MB-468 cells xenografted in mouse assessed as tumor growth inhibition at 37.5 mg/kg, po qd for 21 days measured on day 21 post last dose relative to vehicle control; format: functional; details: MDA-MB-468, po, 504 h, read-out: TGI
[7] = Cmax in mouse at 25 mg/kg, po; format: ADME, organism-based; parameters: dose 25 mg/kg, route oral; details: in vivo, read-out: Cmax
[8] = biological target: Vascular endothelial growth factor receptor 2 (Homo sapiens, UniProt P35968); assay: Inhibition of KDR (unknown origin)
[9] = biological target: T1, Receptor-type tyrosine-protein kinase FLT3 (Homo sapiens, UniProt P36888); assay: Inhibition of FLT3 (unknown origin)
T1 sequence (P36888 whole entry): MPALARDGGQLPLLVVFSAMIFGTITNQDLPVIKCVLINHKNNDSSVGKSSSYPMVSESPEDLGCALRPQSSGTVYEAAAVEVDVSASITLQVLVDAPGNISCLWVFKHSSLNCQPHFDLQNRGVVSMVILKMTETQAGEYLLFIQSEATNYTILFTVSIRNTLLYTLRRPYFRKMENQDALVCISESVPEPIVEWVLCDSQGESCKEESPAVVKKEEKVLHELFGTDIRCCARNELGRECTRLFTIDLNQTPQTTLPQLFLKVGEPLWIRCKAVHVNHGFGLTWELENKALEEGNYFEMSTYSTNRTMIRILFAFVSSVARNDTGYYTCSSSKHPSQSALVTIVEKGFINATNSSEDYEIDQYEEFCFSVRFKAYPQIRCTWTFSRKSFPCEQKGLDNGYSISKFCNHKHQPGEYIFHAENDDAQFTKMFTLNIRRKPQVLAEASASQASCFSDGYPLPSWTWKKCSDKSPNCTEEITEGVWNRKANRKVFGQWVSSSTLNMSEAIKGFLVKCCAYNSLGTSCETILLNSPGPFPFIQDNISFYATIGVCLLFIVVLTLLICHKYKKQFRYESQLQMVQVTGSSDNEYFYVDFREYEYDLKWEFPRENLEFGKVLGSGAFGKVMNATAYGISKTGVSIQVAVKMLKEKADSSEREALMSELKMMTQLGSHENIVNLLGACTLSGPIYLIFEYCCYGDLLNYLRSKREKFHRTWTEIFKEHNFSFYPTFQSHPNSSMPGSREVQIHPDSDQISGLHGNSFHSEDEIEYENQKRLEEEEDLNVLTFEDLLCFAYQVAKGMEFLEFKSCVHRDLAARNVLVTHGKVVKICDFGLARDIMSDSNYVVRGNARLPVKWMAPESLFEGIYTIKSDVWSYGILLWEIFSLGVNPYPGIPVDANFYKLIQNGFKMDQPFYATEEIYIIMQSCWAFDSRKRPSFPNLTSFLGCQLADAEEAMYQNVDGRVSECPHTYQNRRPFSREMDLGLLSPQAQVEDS

[10] = Oral bioavailability in rat at 5 mg/kg; format: ADME, organism-based; details: in vivo
[11] = Toxicity in mouse xenografted with human MDA-MB-468 cells assessed as body weight loss at 37.5 mg/kg, po qd for 21 days measured during compound dosing relative to vehicle control; format: organism-based; details: in vivo, 504 h
[12] = AUC in mouse at 25 mg/kg, po; format: ADME, organism-based; details: in vivo
[13] = AUC in rat at 5 mg/kg, po; format: ADME, organism-based; details: in vivo, read-out: AUC
[14] = Lipophilicity, log D of the compound at pH 7.4; format: physicochemical; details: buffer
[15] = Half life in rat at 1 mg/kg, iv; format: ADME, organism-based; details: in vivo
[16] = tested on: HCC1954; assay: Growth inhibition of human HCC1954; format: functional
[17] = biological target: T2, Serine/threonine-protein kinase PLK4 (Homo sapiens, UniProt O00444); assay: Inhibition of PLK4 (unknown origin)
T2 sequence (O00444 whole entry): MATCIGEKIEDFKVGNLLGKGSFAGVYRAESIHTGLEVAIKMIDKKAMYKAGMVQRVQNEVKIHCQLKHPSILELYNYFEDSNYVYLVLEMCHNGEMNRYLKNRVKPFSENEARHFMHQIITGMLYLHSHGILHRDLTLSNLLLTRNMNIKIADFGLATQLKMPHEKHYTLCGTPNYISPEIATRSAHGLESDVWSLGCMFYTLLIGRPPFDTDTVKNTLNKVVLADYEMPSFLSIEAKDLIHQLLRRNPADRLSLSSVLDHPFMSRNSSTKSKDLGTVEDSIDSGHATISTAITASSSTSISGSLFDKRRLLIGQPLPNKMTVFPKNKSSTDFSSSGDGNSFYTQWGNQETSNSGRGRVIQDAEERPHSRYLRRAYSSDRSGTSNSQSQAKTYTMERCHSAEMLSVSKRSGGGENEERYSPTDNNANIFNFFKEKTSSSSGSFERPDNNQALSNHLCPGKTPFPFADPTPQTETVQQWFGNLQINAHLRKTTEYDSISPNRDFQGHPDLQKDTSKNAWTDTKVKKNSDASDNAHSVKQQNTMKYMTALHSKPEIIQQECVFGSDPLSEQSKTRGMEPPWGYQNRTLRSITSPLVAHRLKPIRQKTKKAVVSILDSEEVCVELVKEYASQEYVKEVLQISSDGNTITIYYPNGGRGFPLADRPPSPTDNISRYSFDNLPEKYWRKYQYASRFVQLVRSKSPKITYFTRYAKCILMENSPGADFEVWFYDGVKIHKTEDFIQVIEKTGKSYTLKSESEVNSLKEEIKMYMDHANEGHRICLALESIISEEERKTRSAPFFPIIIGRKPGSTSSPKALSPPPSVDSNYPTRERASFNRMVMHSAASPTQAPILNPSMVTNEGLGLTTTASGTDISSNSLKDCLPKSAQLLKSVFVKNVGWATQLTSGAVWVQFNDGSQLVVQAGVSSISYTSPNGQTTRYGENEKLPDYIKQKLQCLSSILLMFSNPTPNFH

[18] = biological target: Aurora kinase B (Homo sapiens, UniProt Q96GD4); assay: Inhibition of AURKB (unknown origin)
[19] = biological target: T3, Aurora kinase A (Homo sapiens, UniProt O14965); assay: Inhibition of AURKA (unknown origin)
T3 sequence (O14965 whole entry): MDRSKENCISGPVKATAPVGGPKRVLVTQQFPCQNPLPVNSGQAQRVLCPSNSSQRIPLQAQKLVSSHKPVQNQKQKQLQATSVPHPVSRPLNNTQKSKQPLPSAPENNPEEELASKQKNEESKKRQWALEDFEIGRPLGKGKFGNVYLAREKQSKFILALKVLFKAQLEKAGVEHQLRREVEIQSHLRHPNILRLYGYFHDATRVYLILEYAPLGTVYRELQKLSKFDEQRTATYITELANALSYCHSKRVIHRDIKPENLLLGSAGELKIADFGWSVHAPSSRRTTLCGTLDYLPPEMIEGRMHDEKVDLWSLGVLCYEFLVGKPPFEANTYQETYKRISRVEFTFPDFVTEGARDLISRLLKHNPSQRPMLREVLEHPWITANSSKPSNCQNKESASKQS

[20] = biological target: CYP3A4 (Homo sapiens, UniProt P08684); assay: Inhibition of CYP3A4 (unknown origin) at 1 uM; format: ADME
[21] = Clearance in rat at 1 mg/kg, iv; format: ADME, organism-based; details: in vivo
[22] = Half life in human microsomes; format: ADME, Microsome
[23] = biological target: CYP2C19 (Homo sapiens, UniProt P33261); assay: Inhibition of CYP2C19 (unknown origin) at 1 uM; format: ADME
[24] = Dissociation constant, pKa of the compound; format: physicochemical

Chain of CYP2C9 (P11712 whole entry): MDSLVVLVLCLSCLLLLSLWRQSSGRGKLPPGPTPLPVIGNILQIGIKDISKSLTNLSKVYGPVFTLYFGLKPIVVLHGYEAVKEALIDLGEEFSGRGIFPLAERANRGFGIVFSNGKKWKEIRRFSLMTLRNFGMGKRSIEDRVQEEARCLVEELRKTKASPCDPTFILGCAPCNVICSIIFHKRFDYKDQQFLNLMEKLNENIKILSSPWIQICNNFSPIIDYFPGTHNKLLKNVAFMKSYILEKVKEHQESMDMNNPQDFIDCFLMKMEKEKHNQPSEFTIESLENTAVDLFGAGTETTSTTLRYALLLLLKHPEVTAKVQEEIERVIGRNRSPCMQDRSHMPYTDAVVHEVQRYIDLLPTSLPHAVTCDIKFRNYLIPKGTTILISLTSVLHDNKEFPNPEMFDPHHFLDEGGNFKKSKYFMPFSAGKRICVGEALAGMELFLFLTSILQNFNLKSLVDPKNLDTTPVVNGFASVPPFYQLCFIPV
Chain of Aurora kinase B (Q96GD4 whole entry): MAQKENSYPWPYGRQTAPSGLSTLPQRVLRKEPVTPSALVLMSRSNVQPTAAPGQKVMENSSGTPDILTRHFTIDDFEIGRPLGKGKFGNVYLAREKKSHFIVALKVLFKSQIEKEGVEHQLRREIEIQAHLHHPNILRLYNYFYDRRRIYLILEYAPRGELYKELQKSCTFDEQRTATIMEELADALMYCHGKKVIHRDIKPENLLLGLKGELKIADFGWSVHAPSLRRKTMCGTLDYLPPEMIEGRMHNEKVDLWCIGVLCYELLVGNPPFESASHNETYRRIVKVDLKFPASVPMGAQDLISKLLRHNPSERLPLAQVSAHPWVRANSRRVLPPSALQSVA
Chain of CYP3A4 (P08684 whole entry): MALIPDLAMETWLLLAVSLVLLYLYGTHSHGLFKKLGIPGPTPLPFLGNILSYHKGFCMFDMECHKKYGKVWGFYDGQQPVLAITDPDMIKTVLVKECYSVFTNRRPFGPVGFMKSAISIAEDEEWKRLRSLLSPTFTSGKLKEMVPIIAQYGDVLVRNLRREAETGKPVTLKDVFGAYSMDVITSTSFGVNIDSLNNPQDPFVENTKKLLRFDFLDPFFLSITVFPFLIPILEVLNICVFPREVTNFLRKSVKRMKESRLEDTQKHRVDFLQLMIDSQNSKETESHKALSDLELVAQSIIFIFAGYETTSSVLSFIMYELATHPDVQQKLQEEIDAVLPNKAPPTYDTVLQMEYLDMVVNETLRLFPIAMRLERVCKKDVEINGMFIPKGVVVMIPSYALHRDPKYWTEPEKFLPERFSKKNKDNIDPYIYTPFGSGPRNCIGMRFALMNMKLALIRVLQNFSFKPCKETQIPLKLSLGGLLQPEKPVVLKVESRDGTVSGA
Chain of CYP2C19 (P33261 whole entry): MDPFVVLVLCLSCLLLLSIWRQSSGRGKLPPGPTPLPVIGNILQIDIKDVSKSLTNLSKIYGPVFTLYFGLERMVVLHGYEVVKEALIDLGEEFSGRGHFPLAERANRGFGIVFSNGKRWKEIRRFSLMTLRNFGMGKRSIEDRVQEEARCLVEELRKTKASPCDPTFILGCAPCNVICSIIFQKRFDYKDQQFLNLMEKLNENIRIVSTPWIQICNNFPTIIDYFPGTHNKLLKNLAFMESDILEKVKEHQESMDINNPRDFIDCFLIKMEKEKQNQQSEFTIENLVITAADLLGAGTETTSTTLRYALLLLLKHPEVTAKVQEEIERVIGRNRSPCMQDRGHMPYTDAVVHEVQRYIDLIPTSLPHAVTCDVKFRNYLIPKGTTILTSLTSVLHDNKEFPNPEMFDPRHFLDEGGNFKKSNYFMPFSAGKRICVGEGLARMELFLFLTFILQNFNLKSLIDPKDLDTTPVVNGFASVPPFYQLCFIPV
Chain of Vascular endothelial growth factor receptor 2 (P35968 whole entry): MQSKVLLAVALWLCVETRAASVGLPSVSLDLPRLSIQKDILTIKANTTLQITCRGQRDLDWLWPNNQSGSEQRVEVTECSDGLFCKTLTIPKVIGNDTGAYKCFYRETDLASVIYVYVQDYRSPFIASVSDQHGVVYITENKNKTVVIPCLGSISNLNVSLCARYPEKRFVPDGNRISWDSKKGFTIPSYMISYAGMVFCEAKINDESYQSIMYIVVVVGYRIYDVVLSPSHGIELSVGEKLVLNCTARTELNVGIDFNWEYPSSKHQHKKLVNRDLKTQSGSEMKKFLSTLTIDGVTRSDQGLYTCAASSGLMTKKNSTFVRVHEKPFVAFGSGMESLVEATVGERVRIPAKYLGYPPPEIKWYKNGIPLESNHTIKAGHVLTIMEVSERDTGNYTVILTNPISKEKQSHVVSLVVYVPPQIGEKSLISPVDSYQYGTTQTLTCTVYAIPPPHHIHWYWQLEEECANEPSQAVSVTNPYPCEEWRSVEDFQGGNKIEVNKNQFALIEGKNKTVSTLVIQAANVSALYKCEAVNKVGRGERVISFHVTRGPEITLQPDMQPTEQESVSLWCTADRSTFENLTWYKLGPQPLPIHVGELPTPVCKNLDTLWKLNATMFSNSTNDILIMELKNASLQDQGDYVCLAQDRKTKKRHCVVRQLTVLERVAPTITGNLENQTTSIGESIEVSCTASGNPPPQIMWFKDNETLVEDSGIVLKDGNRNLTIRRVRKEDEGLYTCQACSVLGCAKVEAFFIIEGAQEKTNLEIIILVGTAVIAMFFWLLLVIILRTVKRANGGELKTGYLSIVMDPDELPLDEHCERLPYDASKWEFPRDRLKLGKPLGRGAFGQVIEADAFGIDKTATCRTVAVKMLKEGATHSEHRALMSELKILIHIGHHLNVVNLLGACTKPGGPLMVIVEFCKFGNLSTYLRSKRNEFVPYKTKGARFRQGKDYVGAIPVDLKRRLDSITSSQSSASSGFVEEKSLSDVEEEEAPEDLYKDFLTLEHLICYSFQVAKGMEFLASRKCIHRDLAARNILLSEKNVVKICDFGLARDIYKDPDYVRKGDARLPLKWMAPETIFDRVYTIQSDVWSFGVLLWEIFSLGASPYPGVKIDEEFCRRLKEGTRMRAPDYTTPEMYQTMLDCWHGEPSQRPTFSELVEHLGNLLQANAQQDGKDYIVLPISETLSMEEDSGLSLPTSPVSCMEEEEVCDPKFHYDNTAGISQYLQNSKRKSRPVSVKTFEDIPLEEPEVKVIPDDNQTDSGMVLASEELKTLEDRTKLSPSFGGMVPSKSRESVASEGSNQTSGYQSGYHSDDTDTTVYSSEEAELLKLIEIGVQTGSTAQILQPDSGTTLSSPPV

GI50 [1] | AUC [2] | inhibition at 1 µM [3] | GI50 [4] | half-life [5] | Cmax [7] | IC50 [9] | bioavailability [10] | AUC [12] | AUC [13] | logD [14] | half-life [15] | GI50 [16] | IC50 [17] | IC50 [18] | IC50 [19] | inhibition at 1 µM [20] | clearance [21] | half-life [22] | inhibition at 1 µM [23] | SMILES | also measured
1 nM | 270 ng·h/mL | 35% | 15 nM | 9 min | 710 ng/mL | 45 nM | 22% | 1830 ng·h/mL | 260 ng·h/mL | 4 | 78 min | 1400 nM | 0.94 nM | 6.9 nM | > 1000 nM | 3% | 68.3 mL/min/kg | 19 min | 33% | COc1ccc2c(c1)[C@]1(C[C@H]1c1ccc3c(-c4ccc(N5CCN(C)CC5)cc4)n[nH]c3c1)C(=O)N2 | inhibition in vivo at 37.5 mg/kg [6]: 96%; IC50 [8]: 9400 nM; Activity [11]: < 20%
6.3 nM | 310 ng·h/mL | 37% | 31 nM | 15 min | 1100 ng/mL | 62 nM | 11% | 3000 ng·h/mL | 310 ng·h/mL | 4.8 | 96 min | 240 nM | 1.6 nM | 8.5 nM | > 1000 nM | 6% | 55 mL/min/kg | > 60 min | 60% | CCN1CCN(c2ccc(-c3n[nH]c4cc([C@@H]5C[C@@]56C(=O)Nc5ccc(OC)cc56)ccc34)cc2)CC1 | inhibition in vivo at 37.5 mg/kg [6]: 48%; Activity [11]: < 20%
150 nM |  |  | 220 nM |  |  | 200 nM |  |  |  | 4 |  | 1420 nM | 1.5 nM |  |  |  |  |  |  | COc1ccc2c(c1)[C@]1(C[C@H]1c1ccc3c(-c4ccc(C5(F)CCN(C)CC5)cc4)n[nH]c3c1)C(=O)N2 | pKa [24]: 7.7
100 nM | 270 ng·h/mL | 34% |  | 8 min | 71 ng/mL | 97 nM | 10% | 140 ng·h/mL | 140 ng·h/mL | 3.3 | 96 min | 3300 nM | 0.69 nM | 10 nM | > 1000 nM | 6% | 63.3 mL/min/kg | 20 min | 30% | COc1ccc2c(c1)[C@]1(C[C@H]1c1ccc3c(-c4ccc(N5CCN(C)CC5)nc4)n[nH]c3c1)C(=O)N2 | IC50 [8]: 14000 nM
